For the experiment, the system named is L. donovani amastigotes in THP-1 macrophages, DAPI imaging, 72 h. Nature of the experiment: antileishmanial activity in infected macrophages – imaging, THP-1 host macrophages, single concentration (AID 977614).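 Note: signal is the parasite per host cell ratio from DAPI stained kinetoplasts and nuclei.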

The source made the active and inactive calls.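 Rule for the calls: active = parasite count per well reduced by over 3 SD from the mean, with host cell number above 80% of untreated; inactive = the rest.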 A value given as a limit tells only on which side of the number the result lay.

What is called AC50 is the concentration at which the activity in the assay is half-maximal. With `CCC(=O)N1[C@H](CO)[C@H](c2ccccc2)[C@H]1CN(CC)C(=O)c1cccc(F)c1`, the AC50 is > 10 µM (inactive). For `COc1ccccc1S(=O)(=O)N(C)C[C@@H]1OCc2cn(nn2)CCCC(=O)N([C@@H](C)CO)C[C@H]1C` the value was > 10 µM (inactive). `C[C@H]1CN([C@@H](C)CO)C(=O)CCCn2nncc2CO[C@@H]1CN(C)S(=O)(=O)c1ccccc1C#N`: the AC50 was > 10 µM (inactive).

Consider `C/C=C/c1ccc([C@@H]2[C@@H](CNC(=O)CC3CC3)N(C(=O)CC)[C@H]2CO)cc1`, for which the AC50 was > 10 µM (inactive).

For the compound `O=C(CN1CCOCC1)N1[C@H](CO)[C@@H]2c3ccccc3NC[C@@H]21`, the AC50 was > 10 µM (inactive). Under `CCN(C[C@@H]1[C@H](c2ccccc2)[C@@H](CO)N1C(=O)COC)S(C)(=O)=O` stands > 10 µM (inactive); under `CC(=O)N1[C@H](CO)[C@@H](c2ccccc2)[C@H]1CN(CC(C)C)C(=O)c1ccccn1`, > 10 µM (inactive). Under `O=C(Cc1ccccc1)N1C[C@H]2[C@@H](c3ccccc31)[C@@H](CO)N2S(=O)(=O)c1ccccc1` stands > 10 µM (inactive); under `COc1ccc(C(=O)N2C[C@H]3[C@@H](c4ccccc42)[C@H](CO)N3C(=O)NC(C)C)cc1`, > 10 µM (inactive). In the case of `C[C@@H]1CN([C@@H](C)CO)C(=O)CCCn2nncc2CO[C@@H]1CN(C)C(=O)Nc1ccnc(N2CCOCC2)c1`, the AC50 is > 10 µM (inactive). Under `Cc1noc(C)c1S(=O)(=O)N(C)C[C@@H]1OCc2cnnn2CCCC(=O)N([C@@H](C)CO)C[C@H]1C` stands > 10 µM (inactive).

For the compound `C[C@H]1CN([C@@H](C)CO)C(=O)CCCn2nncc2CO[C@@H]1CN(C)S(=O)(=O)c1cn(C)cn1`, the AC50 was > 10 µM (inactive). Consider `COCC(=O)N1C[C@H]2[C@@H](c3ccccc31)[C@@H](CO)N2Cc1cc(F)ccc1F`, for which the AC50 was > 10 µM (inactive).

In the case of `C[C@@H]1CN([C@@H](C)CO)C(=O)CCCn2nncc2CO[C@@H]1CN(C)C(=O)Nc1cccc(Oc2ccccn2)c1`, the AC50 is > 10 µM (inactive). Turning to `O=C(CC(F)(F)F)N1C[C@@H]2[C@H](c3ccccc31)[C@H](CO)N2C(=O)C1CCCCC1`, the AC50 was > 10 µM (inactive). In the case of `Cc1noc(C)c1S(=O)(=O)N(C)C[C@@H]1OCc2cn(nn2)CCCC(=O)N([C@@H](C)CO)C[C@@H]1C`, the AC50 was > 10 µM (inactive). With `C[C@H](CO)N1C[C@H](C)[C@@H](CN(C)C(=O)Nc2cccc3ccccc23)OCc2cn(nn2)CCCC1=O`, the AC50 was > 10 µM (inactive). Take `O=C(Nc1cccc(Cl)c1)N1C[C@H]2[C@@H](c3ccccc31)[C@@H](CO)N2Cc1cccnc1`: the AC50 is > 10 µM (inactive). Under `O=C(NC[C@@H]1[C@@H](c2ccccc2)[C@@H](CO)N1Cc1ccccn1)C1CCCC1` stands > 10 µM (inactive); under `CC(=O)N1[C@@H](CO)[C@@H](c2ccccc2)[C@@H]1CN(CC1CCC1)C(=O)CN(C)C`, > 10 µM (inactive). `CN1C[C@@H]2[C@H](c3ccccc31)[C@H](CO)N2Cc1ccccc1Cl`: the AC50 was > 10 µM (inactive). In the case of `COc1ccccc1S(=O)(=O)N(C)C[C@H]1OCc2cn(nn2)CCCC(=O)N([C@H](C)CO)C[C@H]1C`, the AC50 is > 10 µM (inactive). Consider `CNC[C@H]1OCc2cnnn2CCCC(=O)N([C@@H](C)CO)C[C@@H]1C`, for which the AC50 is > 10 µM (inactive). For `O=C(NC[C@H]1[C@H](c2ccccc2)[C@@H](CO)N1C(=O)Cc1ccncc1)C1CCC1` the value was > 10 µM (inactive); for `CCC(=O)N1[C@H](CO)[C@@H]2c3ccccc3N(S(=O)(=O)c3ccc(F)cc3)C[C@@H]21`, > 10 µM (inactive). Under `CCN(C[C@H]1N[C@@H](CO)[C@@H]1c1ccccc1)C(=O)c1ccncc1` stands > 10 µM (inactive); under `C[C@H](CO)N1C[C@H](C)[C@H](CN(C)C(=O)Oc2ccc3ccccc3c2)OCc2cn(nn2)CCCC1=O`, > 10 µM (inactive). Under `C[C@@H]1CN([C@@H](C)CO)C(=O)CCCn2nncc2CO[C@H]1CN(C)C(=O)Nc1cccc(Oc2ccccn2)c1` stands > 10 µM (inactive); under `O=C(Cc1cccnc1)N1[C@@H](CO)[C@@H](c2ccccc2)[C@@H]1CNCC1CCC1`, > 10 µM (inactive). On to `CCN(C[C@@H]1N[C@@H](CO)[C@@H]1c1ccccc1)C(=O)c1ccncc1`, for which the AC50 is > 10 µM (inactive).

In the case of `O=C(Nc1ccc(F)cc1)N1C[C@H]2[C@@H](c3ccccc31)[C@@H](CO)N2C(=O)c1ccncc1`, the AC50 was > 10 µM (inactive). As for `O=C(NC[C@H]1[C@H](c2ccccc2)[C@@H](CO)N1Cc1cccnc1)c1ccccn1`, the AC50 is > 10 µM (inactive). For `O=C(c1ccccn1)N1C[C@@H]2[C@H](c3ccccc31)[C@@H](CO)N2C(=O)C1CCCCC1` the value was > 10 µM (inactive); for `C[C@@H]1CN([C@@H](C)CO)C(=O)CCCn2cc(nn2)CO[C@@H]1CN(C)S(=O)(=O)c1cccc(C#N)c1`, > 10 µM (inactive); for `CNC[C@H]1OCc2cn(nn2)CCCC(=O)N([C@@H](C)CO)C[C@@H]1C`, > 10 µM (inactive). Under `COc1ccccc1NC(=O)N1C[C@@H]2[C@H](c3ccccc31)[C@H](CO)N2C(=O)C1CCCC1` stands > 10 µM (inactive). For `CC(C)NC(=O)N1[C@@H](CO)[C@@H]2c3ccccc3NC[C@@H]21`, the AC50 is > 10 µM (inactive). For `COc1ccccc1-c1ccc([C@H]2[C@@H](CO)N[C@@H]2CNC(=O)C2CC2)cc1`, the AC50 is > 10 µM (inactive). With `COCC(=O)N1C[C@H]2[C@@H](c3ccccc31)[C@@H](CO)N2C(=O)c1ccccc1F`, the AC50 was > 10 µM (inactive).

`CCN(C[C@@H]1N[C@@H](CO)[C@H]1c1ccc(-c2ccc(F)cc2)cc1)C(=O)CN(C)C`: the AC50 is > 10 µM (inactive).

Consider `O=C(Nc1ccccc1F)N1C[C@@H]2[C@H](c3ccccc31)[C@@H](CO)N2C(=O)Cc1cccnc1`, for which the AC50 is > 10 µM (inactive).

On to `C[C@@H]1CN([C@H](C)CO)C(=O)CCCn2cc(nn2)CO[C@@H]1CN(C)C(=O)CCC(F)(F)F`, for which the AC50 was > 10 µM (inactive).

On to `CCN(C[C@H]1[C@H](c2ccccc2)[C@H](CO)N1C(=O)COC)S(C)(=O)=O`, for which the AC50 was > 10 µM (inactive). Under `C[C@@H]1CN([C@@H](C)CO)C(=O)CCCn2nncc2CO[C@H]1CN(C)C(=O)Oc1cccc2ccccc12` stands > 10 µM (inactive); under `O=C(Nc1ccc(F)cc1)N1C[C@H]2[C@@H](c3ccccc31)[C@H](CO)N2Cc1ccccc1Cl`, > 10 µM (inactive); under `CCN(C[C@@H]1[C@@H](c2ccccc2)[C@H](CO)N1C(=O)COC)S(C)(=O)=O`, > 10 µM (inactive). For `O=C(CC(F)(F)F)N1C[C@@H]2[C@H](c3ccccc31)[C@H](CO)N2CC1CCOCC1` the value was > 10 µM (inactive); for `O=C(c1ccccc1F)N1C[C@@H]2[C@H](c3ccccc31)[C@@H](CO)N2C(=O)Nc1ccccc1`, > 10 µM (inactive). Take `Cc1noc(C)c1NC(=O)N(C)C[C@@H]1OCc2cnnn2CCCC(=O)N([C@H](C)CO)C[C@@H]1C`: the AC50 was > 10 µM (inactive). For `C[C@@H]1CN([C@H](C)CO)C(=O)CCCn2cc(nn2)CO[C@@H]1CN(C)C(=O)Oc1ccc2ccccc2c1` the value was > 10 µM (inactive). For `C[C@H](CO)N1C[C@H](C)[C@H](CN(C)S(=O)(=O)c2cccc(C#N)c2)OCc2cn(nn2)CCCC1=O` the value was > 10 µM (inactive).

In the case of `C[C@H]1CN([C@@H](C)CO)C(=O)CCCn2cc(nn2)CO[C@@H]1CN(C)C(=O)Nc1ccc2c(c1)OCO2`, the AC50 is > 10 µM (inactive). Regarding `COCC(=O)NC[C@H]1[C@H](c2ccccc2)[C@H](CO)N1C(=O)c1ccccc1`, the AC50 is > 10 µM (inactive). Under `CC(C)NC(=O)N1[C@H](CO)[C@@H]2c3ccccc3NC[C@@H]21` stands > 10 µM (inactive); under `C[C@@H]1CN([C@@H](C)CO)C(=O)CCCn2nncc2CO[C@H]1CN(C)C(=O)Nc1ccc(-c2cccs2)cc1`, > 10 µM (inactive); under `C[C@@H]1CN([C@@H](C)CO)C(=O)CCCn2cc(nn2)CO[C@@H]1CN(C)C(=O)Nc1ccc2c(c1)OCO2`, > 10 µM (inactive). Turning to `CCCNC(=O)N1[C@H](CO)[C@H]2c3ccccc3N(C(=O)Nc3cccc(Cl)c3)C[C@H]21`, the AC50 was > 10 µM (inactive). As for `C[C@@H]1CN([C@H](C)CO)C(=O)CCCn2nncc2CO[C@@H]1CN(C)C(=O)CCC(F)(F)F`, the AC50 is > 10 µM (inactive). For the compound `C/C=C/c1ccc([C@H]2[C@@H](CN(C)C(C)=O)N(C(=O)NC(C)C)[C@H]2CO)cc1`, the AC50 is > 10 µM (inactive). For `O=C(Nc1ccccc1Cl)N1C[C@@H]2[C@H](c3ccccc31)[C@@H](CO)N2C(=O)c1cccnc1` the value was > 10 µM (inactive); for `Cc1ccc(S(=O)(=O)N2C[C@H]3[C@@H](c4ccccc42)[C@@H](CO)N3Cc2cccnc2)cc1`, > 10 µM (inactive); for `CCC(=O)N1[C@H](CO)[C@H](c2ccc(C3=CCCC3)cc2)[C@@H]1CNC1CCCCC1`, > 10 µM (inactive). Consider `O=C(Nc1ccccc1Cl)N1C[C@@H]2[C@H](c3ccccc31)[C@H](CO)N2C(=O)c1cccnc1`, for which the AC50 is > 10 µM (inactive). Consider `COc1ccc(NC(=O)N2C[C@@H]3[C@H](c4ccccc42)[C@H](CO)N3Cc2ccccn2)cc1`, for which the AC50 is > 10 µM (inactive). For `C[C@H](CO)N1C[C@H](C)[C@H](CN(C)C(=O)c2cc(-c3ccccc3)on2)OCc2cnnn2CCCC1=O` the value was > 10 µM (inactive). Turning to `CCC(=O)N1C[C@H]2[C@@H](c3ccccc31)[C@@H](CO)N2Cc1ccc(F)cc1`, the AC50 is > 10 µM (inactive). For `COc1ccc(NC(=O)N(C)C[C@@H]2OCc3cnnn3CCCC(=O)N([C@@H](C)CO)C[C@@H]2C)c(OC)c1` the value was > 10 µM (inactive); for `OC[C@@H]1[C@H](c2ccc(-c3ccc(F)cc3)cc2)[C@@H](CNC2CCCC2)N1CCC(F)(F)F`, > 10 µM (inactive).

Consider `C[C@@H]1CN([C@H](C)CO)C(=O)CCCn2cc(nn2)CO[C@H]1CN(C)S(=O)(=O)c1cccc(C#N)c1`, for which the AC50 is > 10 µM (inactive).

The values are drawn from PubChem BioAssay AID977614 (Broad Institute, 2014).
